Patent US20240247026A1, “SALTS AND CRYSTALLINE FORMS OF (3E) 3-[O-[(PHOSPHONOOXY)METHYL]OXIME]-PREGN-4-ENE-3,20-DIONE AND RELATED USES” (NeuroTrauma Sciences LLC, priority 2021, published 2024)
Entries after “also recorded” stand apart in the source; their conditions may differ. Each block holds one compound with its values, some of them ahead of it.

Experiments:
[1] = One week (7-day) stability testing, HPLC purity and XRPD form; conditions: for Loss in purity, one week stability: open vial
Method: After one week the solids were analyzed by XRPD for physical stability and HPLC for purity.
Seven day stability testing was carried out for Form III at 40° C./75% RH and ambient in open vials. 80° C. was carried out in an open 2 mL vial within a closed 20 mL vial.
The crystalline Bis-Sodium Pattern 3 material underwent 7-day stability tests at 40° C./75% RH (open vial); at ambient temperature, light and humidity (open vial) and 80° C. (sealed vial), with post-stability storage XRPD and HPLC analysis. The solubility of the bis-sodium pattern 3 salt was assessed.

[2] = Thermodynamic solubility studies in pH buffers; conditions: shaken at ambient ca. 24 h
Method: Ca. 6 mg of the salt was weighed into a 2 mL vial and 50 μL aliquots of pH 7.4 PBS was added until dissolution was obtained. […] The preparations were analyzed by XRPD, PLM, TG/DSC, DSC, DVS, FTIR, ^1H and ^31P NMR and HPLC purity. One week stability testing was carried out, salt disproportionation and hydration studies and thermodynamic solubility.
Salt disproportionation and hydration studies were carried out as follows: Ca. 30 mg of each salt was suspended in 400 μL of the solvent systems shown in and shaken at ambient for ca. 24 h. Thermodynamic solubility studies were carried out as follows: Ca. 30 mg of each salt was suspended in 400 μL of the solvent systems shown in and shaken at ambient for ca. 24 h.

[3] = Primary salt screen: XRPD re-analysis after drying at 40° C. and after storage at 40° C./75% RH; format: physicochemical; conditions: for Remained pattern after 40° C.: dried at 40° C. for ca. two days; for Remained pattern after 40° C./78% RH: stored for ca. 24 h
Method: Salt crystallization screening was carried out as follows. Ca. […] The experiments were temperature cycled between ambient and 40° C. in 4 hour cycles for ca. 72 h. […] The solids were then isolated via centrifuge filter and analyzed by XRPD. Selected salts were dried at 40° ° C. for ca. two days and re-analyzed by XRPD. The salts were also characterized by TG/DSC and ^1H NMR.

[4] = Dynamic vapour sorption (DVS); format: physicochemical
Method: Dynamic Vapour Sorption (DVS). Approximately 10-20 mg of sample was placed into a mesh vapour sorption balance pan and loaded into a DVS Advantage dynamic vapour sorption balance by Surface Measurement Systems. The sample was subjected to a ramping profile from 40-90% relative humidity (RH) at 10% increments, maintaining the sample at each step until a stable weight had been achieved (dm/dt 0.004%, minimum step length 30 minutes, maximum step length 500 minutes) at 25° C. After completion of the sorption cycle, the sample was dried using the same procedure to 0% RH and then a second sorption cycle back to 40% RH. Two cycles were performed. The weight change during the sorption/desorption cycles were plotted, allowing for the hygroscopic nature of the sample to be determined. XRPD analysis was then carried out on any solid retained.

[5] = Salt disproportionation and hydration studies; format: physicochemical; conditions: ambient, ca. 24 h; for Hydration studies, outcome: 3 water activities; for Disproportionation experiment, outcome: water
[6] = 80° C., listed as N-(hydroxyethyl)pyrrolidine Pattern 2
[7] = listed as N-(hydroxyethyl)pyrrolidine Pattern 2

SMILES: CC(=O)C1CCC2C3CCC4=CC(=NOCOP(=O)(O)O)CCC4(C)C3CCC12C.NC(CO)(CO)CO (stereo not shown) [Form III]
XRPD form after one week stability ([1]; 80° C.): Form IV

SMILES: CC(=O)[C@H]1CC[C@H]2[C@@H]3CCC4=CC(=NOCOP(=O)([O-])[O-])CC[C@]4(C)[C@H]3CC[C@]12C.[Na+].[Na+] [Sodium Pattern 3]
Solubility ([2]; pH 7.4): <12 mg/mL at pH 7.4 | Decrease in purity, one week stability ([1]; 80° C.): Large drop in purity at 80 °C | XRPD form after one week stability ([1]; 80° C.): 40° C./75% RH, Pattern 5 | Decrease in purity, one week stability ([1]; 80° C., listed as sodium salt Pattern 3): large drop in purity | XRPD form after one week stability ([1]; all conditions tested): form conversion

Remained pattern after 40° C. [3]: Yes
SMILES: NCCO [Ethanolamine]

SMILES: CCNC[C@H](O)[C@@H](O)[C@H](O)[C@H](O)CO [N-ethyl glucamine]
Remained pattern after 40° C. [3]: Yes | Remained pattern after 40° C./78% RH [3]: No. Mixture

SMILES: CC(=O)[C@H]1CC[C@H]2[C@@H]3CCC4=CC(=NOCOP(=O)(O)O)CC[C@]4(C)[C@H]3CC[C@]12C.OCCN1CCCC1.OCCN1CCCC1 [Form V]
Solubility ([2]; pH 7.4): > 45 mg/mL | Solubility ([2]; pH 8): > 39 mg/mL | Solubility ([2]; pH 8.5): > 39 mg/mL | Post DVS XRPD form [4]: remain unchanged | DVS hygroscopic nature ([4]; 25° C.): hygroscopic | DVS total uptake at 90% RH ([4]; 25° C.): 19.0% | DVS total uptake at 90% RH as equivalents of water ([4]; 25° C.): 7.3 equivalents of water | DVS uptake between 40% RH and 90% RH ([4]; 25° C.): 17.8% | DVS uptake between 40% RH and 90% RH ([4]; 25° C., listed as N-(hydroxyethyl)pyrrolidine Pattern 2): 17.8% uptake between 40 & | Loss in purity, one week stability ([1]; 40° C./75% RH): No loss in purity | Loss in purity, one week stability ([1]; 40° C./75% RH, listed as N-(hydroxyethyl)pyrrolidine Pattern 2): No loss in purity at ambient | Decrease in purity, one week stability ([1]; 80° C.): 0.9 % Area | XRPD form after one week stability ([1]; 80° C.): some minor changes | Decrease in purity, one week stability [1, 6]: & 40° C./75% RH. 0.9% Area | XRPD form after one week stability [1, 6]: minor changes at 80 °C | XRPD form after one week stability ([1]; all conditions tested): Form V remained; also recorded: remain unchanged | XRPD form after one week stability ([1]; all conditions tested, listed as N-(hydroxyethyl)pyrrolidine Pattern 2): Remained Pattern 2, some | Loss in purity, one week stability ([1]; ambient light and temperature): No loss in purity | Loss in purity, one week stability ([1]; ambient light and temperature, listed as N-(hydroxyethyl)pyrrolidine Pattern 2): No loss in purity at ambient | Hydration studies, outcome [5]: Solutions were obtained; also recorded: no solids after 24 h | Hydration studies, outcome [5, 7]: Solutions obtained | Disproportionation experiment, outcome [5]: Solutions were obtained; also recorded: no solids after 24 h | Disproportionation experiment, outcome [5, 7]: Solutions obtained | Remained pattern after 40° C. [3]: Yes | Remained pattern after 40° C./78% RH [3]: Yes

SMILES: [K+] [Potassium]
Remained pattern after 40° C. [3]: Yes | Remained pattern after 40° C./78% RH [3]: No - Pattern 5 | Remained pattern after 40° C./78% RH ([3]; listed as potassium Pattern 1): Pattern 5
